Laboratory results published in paper PMC8703884, “Synthesis and Biological Evaluation of S-, O- and Se-Containing Dispirooxindoles” (Molecules, 2021).
“Also recorded” adds a separate entry of the source. Read-outs that look alike come from different tables or passages of the source. One block for each compound: values may come before it.

Experiments:
[1] = system: A549 human lung adenocarcinoma epithelial cell line; experiment: MTT cytotoxicity test, A549; type: cell-based; settings: 72 h incubation
[2] = MTT cytotoxicity test, Hek293T; type: cell-based; settings: human, 72 h incubation
[3] = system: HCT116^+/+ human colon cancer cells (p53 positive); experiment: MTT cytotoxicity test, HCT116 p53+/+; settings: for CC50: Homo sapiens, HCT-116, read-out: CC50, HCT^+/+
Text: (§1) The used models included human prostate cancer cell lines LNCaP and PC3, breast cancer cell line (MCF-7), human colon cancer cells (HCT116^+/+, p53 positive, p53^+/+ and HCT116^−/−, p53 negative, p53^−/−), human lung adenocarcinoma epithelial cell line (A549), SV40-transformed normal human lung fibroblast cells (VA13), as well as human embryonic kidney 293 cells (Hek293) stably expressing SV40 large T antigen (Hek293T). The cytotoxicity of the evaluated molecules was properly assessed using a MTT assay based on the modified approach reported by Ferrari and colleagues.
(§2) To further elucidate the dominant mode of action, we used HCT116^+/+ and HCT116^−/− cells by analogy with the paper published by Shangary and colleagues. This isogenic cell line is commonly applied to investigate the p53/MDM2-dependent mode of action.
(§3) MTT test. The MTT assay was carried out according to [35] with few modifications; 3000 Cells (for HEK293T, A549 and MCF7cell lines) or 4000 cells (for VA13 cell line) were seeded in each well of a 96-well plate. […] Assays were performed in triplicates. […] The MTT solution was then discarded and 140 µL of DMSO was added. The plates were swayed on a shaker (60 rpm) to solubilize the formazan. […] The analysis of cytotoxicity and the estimation of IC50 values were carried out with the built-in functions in the GraphPad Prism program (GraphPad Software, Inc., San Diego, CA) P53 activation.

[4] = system: HCT116^−/− human colon cancer cells (p53 negative); experiment: MTT cytotoxicity test, HCT116 p53-/-; settings: HCT-116, read-out: CC50, HCT^−/−
Text: as §1, §2, §3

[5] = system: LNCaP human prostate cancer cell line; experiment: MTT cytotoxicity test, LNCaP; type: cell-based; settings: for CC50: Homo sapiens, LNCaP, read-out: CC50, LNCaP
[6] = system: PC3 human prostate cancer cell line; experiment: MTT cytotoxicity test, PC3; type: cell-based; settings: Homo sapiens
[7] = system: MCF7 breast cancer cell line; experiment: MTT cytotoxicity test, MCF7; type: cell-based; settings: Homo sapiens, 72 h incubation
Protocol: (§4) MTT test. […] Assays were performed in triplicates.

[8] = MTT cytotoxicity test, VA13; type: cell-based; settings: human, VA13 SV40-transformed normal lung fibroblast cells, 72 h incubation
Protocol: as §4

[9] = ratio of CC50 values of the cell line pair

SMILES: CN1CC2(NC(=S)N(c3ccc(F)cc3)C2=O)C2(C1)C(=O)Nc1ccc(Cl)cc12 (stereo not shown) [Compound 4n, 5″-Chloro-1′-methyl-1-(4-fluorophenyl)-2-thioxodispiro[imidazolidine-4,3′-pyrrolidine-4′,3″-indoline]-2″,5-dione]
- CC50 [1]: > 100 µM
- CC50 at 72 h [2]: 53 ± 9.5 µM
- CC50 [3]: > 100 µM
- CC50 [4]: > 100 µM
- CC50 ([5]; MTT test): > 100 µM
- CC50 [6]: > 100 µM
- melting point: 273 to 274 °C

SMILES: CN1CC2(NC(=[Se])N(c3ccc(F)c(Cl)c3)C2=O)C2(C1)C(=O)Nc1ccc(Cl)cc12 (stereo not shown) [Compound 6r, 5″-Chloro-1-(3-chloro-4-fluorophenyl)-1′-methyl-2-selenoxodispiro[imidazolidine-4,3′-pyrrolidine-4′,3″-indoline]-2″,5-dione]
- CC50 [1]: 26.5 ± 5.4 µM
- CC50 at 72 h [2]: 11.9 ± 0.9 µM
- CC50 [5]: 11.8 ± 1.5 µM
- CC50, LNCaP ([5]; MTT test): good activity
- CC50 [6]: > 50 µM
- melting point: 193 to 194 °C (dec.)

SMILES: COc1ccc(N2C(=O)[C@@]3(CN(C)C[C@@]34C(=O)Nc3ccc(Cl)cc34)NC2=S)cc1 (racemic) [Compound 4f, 5″-Cchloro-1′-methyl-1-(4-methoxyphenyl)-2-thioxodispiro[imidazolidine-4,3′-pyrrolidine-4′,3″-indoline]-2″,5-dione]
- CC50 [1]: 2.8 ± 0.4 µM
- CC50 [7]: 2.3 ± 0.5 µM
- CC50 at 72 h [8]: 2.3 ± 0.4 µM
- CC50 at 72 h [2]: 1.1 ± 0.1 µM
- CC50 [3]: 1.95 ± 0.43 µM
- CC50 [4]: 2.35 ± 0.95 µM
- CC50 ([5]; MTT test): 4.5 ± 0.32 µM
- selectivity on LNCaP cells over PC3 cells ([5]; MTT test): selective; also recorded: moderate selectivity
- selectivity index S for LNCaP/PC3 cells [5, 9]: 2.8
- CC50 [6]: 12.6 ± 2.3 µM

SMILES: CN1CC2(NC(=S)N(c3ccccc3)C2=O)C2(C1)C(=O)Nc1ccc(Cl)cc12 (stereo not shown) [Compound 4x, 5″-Chloro-1′-methyl-1-phenyl-2-thioxodispiro[imidazolidine-4,3′-pyrrolidine-4′,3″-indoline]-2″,5-dione]
- CC50 [1]: > 100 µM
- CC50 at 72 h [2]: > 100 µM
- CC50 [3]: > 100 µM
- CC50 [4]: > 100 µM
- CC50 ([5]; MTT test): > 100 µM
- CC50 [6]: > 100 µM
- melting point: 268 to 269 °C

SMILES: CN1CC2(NC(=S)N(CCCN3CCOCC3)C2=O)C2(C1)C(=O)Nc1ccc(Cl)cc12 (stereo not shown) [Compound 4v, 5″-Chloro-1′-methyl-1-(3-morpholinopropyl)-2-thioxodispiro[imidazolidine-4,3′-pyrrolidine-4′,3″-indoline]-2″,5-dione]
- CC50 [1]: > 100 µM
- CC50 at 72 h [2]: 103 ± 27.7 µM
- CC50 [3]: > 100 µM
- CC50 [4]: > 100 µM
- CC50 ([5]; MTT test): > 100 µM
- CC50 [6]: > 100 µM
- melting point: 224 to 225 °C

SMILES: COc1cc([C@@H]2c3cc4c(cc3[C@@H](O[C@@H]3O[C@@H]5CO[C@@H](C)O[C@H]5[C@H](O)[C@H]3O)[C@H]3COC(=O)[C@H]23)OCO4)cc(OC)c1O [Etoposide, reference compound]
- CC50 [1]: 0.3 ± 0.1 µM
- CC50 [7]: 2.6 ± 0.9 µM
- CC50 at 72 h [2]: 0.3 ± 0.1 µM
- CC50 [3]: 0.43 ± 0.12 µM
- selectivity S against HCT116^+/+ over HCT116^−/− [3, 9]: 1.97
- CC50 [4]: 0.85 ± 0.22 µM

Now from value to compound, other results behind:

- melting point: 273 to 274 °C
SMILES: CCOc1ccc(N2C(=O)NC3(CN(C)CC34C(=O)Nc3ccc(Cl)cc34)C2=O)cc1 (stereo not shown) [Compound 9h, 5″-Chloro-1-(4-ethoxyphenyl)-1′-methyldispiro[imidazolidine-4,3′-pyrrolidine-4′,3″-indoline]-2,2″,5-trione]

- melting point: 284 to 285 °C (dec.)
SMILES: COc1ccc(N2C(=O)C3(CN(C)CC34C(=O)Nc3ccc(Cl)cc34)NC2=[Se])cc1 (stereo not shown) [Compound 6f, 5″-Chloro-1-(4-methoxyphenyl)-1′-methyl-2-selenoxodispiro[imidazolidine-4,3′-pyrrolidine-4′,3″-indoline]-2″,5-dione]
- CC50 [1]: 15.8 ± 1.5 µM
- CC50 [7]: 20.4 ± 3.6 µM
- CC50 at 72 h [8]: 12.5 ± 1.5 µM
- CC50 at 72 h [2]: 14 ± 1.5 µM
